Test results taken from ChEMBL document CHEMBL1149784, “Discovery of a new anilino-3H-pyrrolo[3,2-f]quinoline derivative as potential anti-cancer agent” (Eur J Med Chem, 2008).
The source made the active and inactive calls. The rule behind the calls is not given here.

Assays:
HL-60 = test: Growth inhibition of human HL60 cells after 72 hrs by trypan blue assay; format: functional, cell-based; conditions: HL-60, 72 h
HeLa = test: Growth inhibition of human HeLa cells after 72 hrs by trypan blue assay; format: functional, cell-based
[1] = Growth inhibition of human JR8 cells after 72 hrs by trypan blue assay; format: functional, cell-based; conditions: JR8, 72 h
OVCAR-3 [2] = test: Growth inhibition of human OVCAR-3 cells after 72 hrs by trypan blue assay; format: functional, cell-based; conditions: OVCAR-3, 72 h
[3] = target: DNA topoisomerase 2-alpha (Homo sapiens) (UniProt P11388); test: Inhibition of human recombinant topoisomerase 2 assessed as relaxation of supercoiled pBR322 DNA
OVCAR-3 [4] = test: Cell cycle arrest in human OVCAR-3 cells assessed as accumulation at subG0 phase at 1 uM by flow cytometry; format: functional
OVCAR-3 [5] = test: Cell cycle arrest in human OVCAR-3 cells assessed as accumulation at G0/G1 phase at 1 uM by flow cytometry; format: functional
OVCAR-3 [6] = test: Cell cycle arrest in human OVCAR-3 cells assessed as accumulation at S phase at 1 uM by flow cytometry; format: functional
OVCAR-3 [7] = test: Cell cycle arrest in human OVCAR-3 cells assessed as accumulation at G2/M phase at 1 uM by flow cytometry; format: functional
OVCAR-3 [8] = test: Cell cycle arrest in human OVCAR-3 cells assessed as accumulation at subG0 phase at 5 uM by flow cytometry; format: functional
OVCAR-3 [9] = test: Cell cycle arrest in human OVCAR-3 cells assessed as accumulation at G0/G1 phase at 5 uM by flow cytometry; format: functional
OVCAR-3 [10] = test: Cell cycle arrest in human OVCAR-3 cells assessed as accumulation at S phase at 5 uM by flow cytometry; format: functional
OVCAR-3 [11] = test: Cell cycle arrest in human OVCAR-3 cells assessed as accumulation at G2/M phase at 5 uM by flow cytometry; format: functional
OVCAR-3 [12] = test: Cell cycle arrest in human OVCAR-3 cells assessed as accumulation at subG0 phase at 10 uM by flow cytometry; format: functional
OVCAR-3 [13] = test: Cell cycle arrest in human OVCAR-3 cells assessed as accumulation at G0/G1 phase at 10 uM by flow cytometry; format: functional
OVCAR-3 [14] = test: Cell cycle arrest in human OVCAR-3 cells assessed as accumulation at S phase at 10 uM by flow cytometry; format: functional
OVCAR-3 [15] = test: Cell cycle arrest in human OVCAR-3 cells assessed as accumulation at G2/M phase at 10 uM by flow cytometry; format: functional
Salmonidae = test: Binding affinity to Salmon testes DNA assessed as drug-DNA complex formation by linear flow dichroism method
OVCAR-3 [16] = test: Cell cycle arrest in human OVCAR-3 cells assessed as accumulation at subG0 phase at 16 uM by flow cytometry; format: functional
OVCAR-3 [17] = test: Cell cycle arrest in human OVCAR-3 cells assessed as accumulation at G0/G1 phase at 16 uM by flow cytometry; format: functional
OVCAR-3 [18] = test: Cell cycle arrest in human OVCAR-3 cells assessed as accumulation at S phase at 16 uM by flow cytometry; format: functional
OVCAR-3 [19] = test: Cell cycle arrest in human OVCAR-3 cells assessed as accumulation at G2/M phase at 16 uM by flow cytometry; format: functional

Chain of DNA topoisomerase 2-alpha (Homo sapiens) (P11388 whole entry): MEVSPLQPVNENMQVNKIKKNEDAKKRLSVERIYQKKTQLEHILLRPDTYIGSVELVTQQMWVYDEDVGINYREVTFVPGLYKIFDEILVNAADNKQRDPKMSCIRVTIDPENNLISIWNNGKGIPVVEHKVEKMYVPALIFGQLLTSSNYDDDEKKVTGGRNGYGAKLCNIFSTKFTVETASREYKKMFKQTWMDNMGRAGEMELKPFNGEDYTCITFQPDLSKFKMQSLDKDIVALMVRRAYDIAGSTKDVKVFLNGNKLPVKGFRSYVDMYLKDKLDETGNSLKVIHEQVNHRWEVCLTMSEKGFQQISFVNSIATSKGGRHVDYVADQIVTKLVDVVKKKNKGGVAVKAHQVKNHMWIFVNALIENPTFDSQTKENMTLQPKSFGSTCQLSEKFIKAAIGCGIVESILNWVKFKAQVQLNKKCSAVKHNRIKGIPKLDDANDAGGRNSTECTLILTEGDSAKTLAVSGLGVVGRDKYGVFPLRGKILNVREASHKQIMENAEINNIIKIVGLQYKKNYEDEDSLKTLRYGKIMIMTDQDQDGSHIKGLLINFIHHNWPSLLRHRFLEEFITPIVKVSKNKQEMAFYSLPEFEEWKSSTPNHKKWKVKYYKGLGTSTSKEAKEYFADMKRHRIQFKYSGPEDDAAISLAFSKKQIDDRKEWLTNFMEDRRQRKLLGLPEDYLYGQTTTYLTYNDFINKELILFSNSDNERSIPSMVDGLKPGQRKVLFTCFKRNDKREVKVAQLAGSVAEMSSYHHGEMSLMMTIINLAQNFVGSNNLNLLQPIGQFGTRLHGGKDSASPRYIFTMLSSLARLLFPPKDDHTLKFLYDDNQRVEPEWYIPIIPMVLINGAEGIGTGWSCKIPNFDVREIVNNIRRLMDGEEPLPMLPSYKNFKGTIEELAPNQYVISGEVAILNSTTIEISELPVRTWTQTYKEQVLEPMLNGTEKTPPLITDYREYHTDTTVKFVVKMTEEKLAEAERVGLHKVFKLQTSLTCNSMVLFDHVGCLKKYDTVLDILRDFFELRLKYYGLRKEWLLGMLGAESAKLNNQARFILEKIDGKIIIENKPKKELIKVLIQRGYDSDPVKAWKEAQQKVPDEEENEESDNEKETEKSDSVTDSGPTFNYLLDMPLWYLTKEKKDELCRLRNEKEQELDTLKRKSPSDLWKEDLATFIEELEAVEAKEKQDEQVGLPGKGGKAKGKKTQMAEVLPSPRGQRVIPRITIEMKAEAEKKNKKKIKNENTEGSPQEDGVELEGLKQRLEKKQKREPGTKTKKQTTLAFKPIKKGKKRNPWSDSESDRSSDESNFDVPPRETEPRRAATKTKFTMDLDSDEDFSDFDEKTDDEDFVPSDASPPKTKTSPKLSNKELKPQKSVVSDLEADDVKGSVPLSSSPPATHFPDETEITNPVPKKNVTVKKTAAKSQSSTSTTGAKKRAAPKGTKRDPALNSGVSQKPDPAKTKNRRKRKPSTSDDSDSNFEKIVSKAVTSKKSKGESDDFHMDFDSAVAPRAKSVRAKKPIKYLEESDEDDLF

Question: What does the source list for `CC(=O)c1ccc(Nc2ccnc3ccc4[nH]ccc4c23)cc1.Cl`?
Answer: IC50 (HL-60): 500 nM; IC50 (HeLa): 3400 nM; IC50 [1]: 590 nM; IC50 (OVCAR-3 [2]): 530 nM; Activity [3]: Dose-dependent effect; Activity (OVCAR-3 [4]): 7.6%; Activity (OVCAR-3 [5]): 51.9%; Activity (OVCAR-3 [6]): 9.4%; Activity (OVCAR-3 [7]): 31.4%; Activity (OVCAR-3 [8]): 4.3%; Activity (OVCAR-3 [9]): 24.7%; Activity (OVCAR-3 [10]): 13.6%; Activity (OVCAR-3 [11]): 57.8%; Activity (OVCAR-3 [12]): 0.5%; Activity (OVCAR-3 [13]): 24.5%; Activity (OVCAR-3 [14]): 11.6%; Activity (OVCAR-3 [15]): 63.7%; Activity (Salmonidae): Active

Question: With `COc1cc(NS(C)(=O)=O)ccc1Nc1c2ccccc2nc2ccccc12` [AMSACRINE] as the molecule, how does the Activity (OVCAR-3 [16]) read?
Answer: 1.8%

Question: And the Activity (OVCAR-3 [17])?
Answer: 44.7%

Question: What about the Activity (OVCAR-3 [18]) of the same molecule?
Answer: 12.7%

Question: What about the Activity (OVCAR-3 [19]) of the same molecule?
Answer: 41.3%

Question: With `CC[C@]1(O)C[C@H]2CN(CCc3c([nH]c4ccccc34)[C@@](C(=O)OC)(c3cc4c(cc3OC)N(C=O)[C@H]3[C@@](O)(C(=O)OC)[C@H](OC(C)=O)[C@]5(CC)C=CCN6CC[C@]43[C@@H]65)C2)C1` [VINCRISTINE] as the molecule, how does the Activity (OVCAR-3 [4]) read?
Answer: 0.5%

Question: And the Activity (OVCAR-3 [5])?
Answer: 46.8%

Question: What about the Activity (OVCAR-3 [6]) of the same molecule?
Answer: 7.9%

Question: And the Activity (OVCAR-3 [7])?
Answer: 45.2%
